Results on four compounds are retold here after US20210179577A1, “AROMATIC SULFONAMIDE DERIVATIVES FOR THE TREATMENT OF ISCHEMIC STROKE” (Bayer Aktiengesellschaft, priority 2017, published 2021).

What all share (format): cell-based
In one experiment the target is T1, rat P2X4 (Rattus norvegicus, UniProt P51577).
T1 construct: expressed in transfected cells; host or cells: 1321N1 astrocytoma cells
T1 sequence (P51577 1-388): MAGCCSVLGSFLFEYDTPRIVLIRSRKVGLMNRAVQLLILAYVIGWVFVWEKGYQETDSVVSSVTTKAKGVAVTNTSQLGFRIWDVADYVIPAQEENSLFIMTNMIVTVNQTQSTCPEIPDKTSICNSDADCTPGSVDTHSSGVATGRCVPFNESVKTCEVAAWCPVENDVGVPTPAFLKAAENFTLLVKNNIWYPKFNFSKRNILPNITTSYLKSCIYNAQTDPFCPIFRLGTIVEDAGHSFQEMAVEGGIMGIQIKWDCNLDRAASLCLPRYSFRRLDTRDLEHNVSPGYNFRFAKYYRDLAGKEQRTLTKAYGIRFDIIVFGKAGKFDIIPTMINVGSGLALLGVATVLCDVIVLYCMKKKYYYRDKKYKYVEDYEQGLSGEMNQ
The experiment can be described thus: FLIPR assay, rat P2X4 1321N1 Astrocytoma Cells. The settings on record: 1321N1 Astrocytoma cells. As for the experimental part:
(§1) 1321N1 Astrocytoma cells stably expressing human P2X4 or rat P2X4 or mouse P2X4 were plated in Collagen ITO-treated microplate at a seeding density of 10000 cells/well and incubated overnight. P2X4 function was assessed by measuring intracellular calcium changes using the calcium-chelating dye Fluo8-AM (Molecular Devices) on a fluorescent imaging plate reader (FLEX/FLIPR station; Molecular Devices). On the day of the assay, the medium was removed and the cells were incubated for 30 min at […] and 5% CO2 in 30 μL of dye buffer (Hank's balanced salt solution, 10 mM HEPES, 1.8 mM CaCl2, 1 mM MgCl2, 2 mM probenecid, 5 mM D-glucose monohydrate, 5 μM Fluo8-AM, pH=7.4). Compounds diluted in probenecid buffer (Hank's balanced salt solution, 10 mM HEPES, 1.8 mM CaCl2, 1 mM MgCl2, 2 mM probenecid, 5 mM D-glucose monohydrate, pH=7.4) were added in a volume of 10 μL and allowed to incubate for 30 min at room temperature. The final assay DMSO concentration was 0.25%. The agonist, Mg-ATP (Sigma), was added in a volume of 10 μL at a concentration representing the EC80 value. EC80 was determined to be 0.5 μM for human and mouse P2X4 and 5 μM for rat P2X4. The fluorescence was measured for an interval of 120 sec at 2 sec intervals. The excitation and emission wavelengths used to monitor fluorescence were 470-495 nm and 515-575 nm, respectively. The data was analyzed based on the increase in peak relative fluorescence units (RFU) compared to the basal fluorescence and the data was normalized to the agonist control. The compounds were tested in triplicates per plate and mean values were plotted in Excel XLFit to determine IC50 values, percentage of maximal inhibition and the Hill coefficients.

The target of experiment [1] is T2, human P2X4 (Homo sapiens, UniProt Q99571).
T2 sequence (Q99571 1-388): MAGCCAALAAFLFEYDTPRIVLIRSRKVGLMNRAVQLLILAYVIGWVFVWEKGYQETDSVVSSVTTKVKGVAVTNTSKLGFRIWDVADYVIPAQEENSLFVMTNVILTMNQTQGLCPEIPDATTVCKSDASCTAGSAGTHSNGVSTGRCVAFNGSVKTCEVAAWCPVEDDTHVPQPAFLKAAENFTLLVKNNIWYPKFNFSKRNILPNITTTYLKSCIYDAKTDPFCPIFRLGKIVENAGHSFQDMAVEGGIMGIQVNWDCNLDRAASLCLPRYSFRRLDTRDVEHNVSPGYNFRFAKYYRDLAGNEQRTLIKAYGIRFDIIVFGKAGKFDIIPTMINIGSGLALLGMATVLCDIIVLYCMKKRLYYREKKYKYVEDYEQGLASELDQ
The experiment can be described thus: FLIPR assay, human P2X4 1321N1 Astrocytoma Cells. The arrangement: expressed in transfected cells. The settings on record: 1321N1 Astrocytoma cells. As for the experimental part: as §1

In a further experiment the target is T3, mouse P2X4 (Mus musculus, UniProt Q9JJX6).
T3 construct: expressed in transfected cells; host or cells: 1321N1 astrocytoma cells
T3 sequence (Q9JJX6 1-388): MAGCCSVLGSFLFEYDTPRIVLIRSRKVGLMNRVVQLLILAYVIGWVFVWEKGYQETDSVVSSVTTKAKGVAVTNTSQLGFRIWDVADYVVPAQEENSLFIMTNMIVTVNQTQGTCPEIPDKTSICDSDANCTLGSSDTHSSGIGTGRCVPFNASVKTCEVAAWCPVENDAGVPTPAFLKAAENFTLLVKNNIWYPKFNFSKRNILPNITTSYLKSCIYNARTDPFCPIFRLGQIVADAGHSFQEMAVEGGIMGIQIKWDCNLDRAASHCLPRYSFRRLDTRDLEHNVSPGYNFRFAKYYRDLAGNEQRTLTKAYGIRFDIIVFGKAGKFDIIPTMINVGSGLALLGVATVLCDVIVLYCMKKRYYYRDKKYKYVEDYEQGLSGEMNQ
The experiment can be described thus: FLIPR assay, mouse P2X4 1321N1 Astrocytoma Cells. The settings on record: 1321N1 Astrocytoma cells. As for the experimental part: as §1

Experiment [2] concerns the target T2, human P2X4. In words: Human P2X4 HEK Cell FLIPR Assay. Details: expressed in transfected cells; host or cells: HEK293. The settings on record: HEK293 cells, agonist Bz-ATP at EC80. As for the experimental part:
HEK293 cells stably expressing human P2X4 were plated in poly-D-lysine-coated 384-well plates at a seeding density of 30000 cells/well and incubated overnight. P2X4 function was assessed by measuring intracellular calcium changes using the calcium-chelating dye Fluo8-AM (Molecular Devices) on a fluorescent imaging plate reader (FLEX/FLIPR station; Molecular Devices). On the day of the assay, the medium was removed and the cells were incubated for 30 min at 37° C. and 5% CO2 in 30 μL of dye buffer (Hank's balanced salt solution, 10 mM HEPES, 1.8 mM CaCl2, 1 mM MgCl2, 2 mM probenecid, 5 mM D-glucose monohydrate, 5 μM Fluo8-AM, pH=7.4). Compounds diluted in probenecid buffer (Hank's balanced salt solution, 10 mM HEPES, 1.8 mM CaCl2, 1 mM MgCl2, 2 mM probenecid, 5 mM D-glucose monohydrate, pH=7.4) were added in a volume of 10 μL and allowed to incubate for 30 min at room temperature. The final assay DMSO concentration was 0.5%. The agonist, Bz-ATP (Tocris), was added in a volume of 10 μL at a concentration representing the EC80 value. The EC80 value of Bz-ATP was determined each assay day prior to compound profiling. The fluorescence was measured for an interval of 120 sec at 2 sec intervals. The excitation and emission wavelengths used to monitor fluorescence were 470-495 nm and 515-575 nm, respectively. The data was analyzed based on the increase in peak relative fluorescence units (RFU) compared to the basal fluorescence and the data was normalized to the agonist control. The compounds were tested in triplicates per plate and mean values were plotted in Excel XL-Fit to determine IC50 values, percentage of maximal inhibition and the Hill coefficients.

For another experiment, the target named is T4, hP2X4 (Homo sapiens, UniProt Q99571).
T4 construct: expressed in transfected cells; host or cells: HEK-293 mito-Photina, clone 2a/4
T4 sequence (Q99571 1-388): T2 sequence (Q99571 1-388)
In words: Human P2X4 HEK Cell Electrophysiology Assay B (QPatch). Particulars: ATP 5 microM, -90 mV; read-out: Human P2X4 HEK Cells (QPatch Electrophysiology) avg IC50. As for the experimental part:
Cell culture conditions: HEK-293 mito-Photina pcDNA3(neo-)/pPURO N/pcDNA3_P2RX4, clone 2a/4 (HEK-293 mito-Photina/hP2RX4) cells were cultured in EMEM Minimum Essential Medium Eagle with Earl's salts Balanced Salt Solution (BioWhittaker cat. BE12-125F) supplemented with 5 mL of 200 mM Ultraglutaminel (BioWhittaker cat. BE17-605E/U1), 5 mL of 100× Penicillin/Streptomycin (BioWhittaker cat. DE17-602E; final concentration 1%), 4 mL of 50 mg/mL G418 (Sigma cat. G8168-100 mL; final concentration 400 μg/mL), 10 μL of 10 mg/mL Puromicin (InvivoGen cat. ant-pr-1; final concentration 0.2 μg/mL) and 50 mL of Fetal Bovine Serum (Sigma cat. F7524; final concentration 10%).
Experimentalprotocol: HEK-293 cell lines are seeded 72 or 96 hours before experiment, at a concentration of 5 or 2.5 million cells, respectively onto a T225 flask. Just before the experiments cells are washed twice with D-PBS w/o Ca2+/Mg2+(Euroclone cat. ECB4004L) and detached from the flask with trypsin-EDTA (Sigma, cat. T4174 diluted 1/10). Cells are then re-suspended in the suspension solution: 25 mL EX-CELL ACF CHO medium (Sigma, cat. C5467); 0.625 mL HEPES (BioWhittaker, cat. BE17-737E); 0.25 mL of 100× Penicillin/Streptomycin (BioWhittaker, cat. DE17-602E), 0.1 mL of Soybean Trypsin Inhibitor 10 mg/mL (Sigma, cat. T6522) and placed on the QPatch 16X.
Compound preparation and storage: Compound stock solutions (10 mM; 100% DMSO; stored at −20° C.) were used. Fresh solutions from stock (1 or 3 mM, 100% DMSO) were prepared just before the experiments (0.1% final DMSO concentration).
Patch clamp analysis with QPatch16X (FIG. 1): Standard whole-cell voltage clamp experiments are performed at room temperature using the multihole technology.
For the voltage clamp experiments on hP2X4, data are sampled at 2 KHz. After establishment of the seal and the passage in the whole cell configuration, the cells are held at −90 mV and the hP2X4 current is evoked by the agonist in the absence (vehicle period, i.e. 0.1% DMSO) or in the presence of the compound under investigation at increasing concentrations; see the application protocol in FIG. 1.
Output: the maximum inward current induced by the agonist (ATP 5 microM).
The intracellular solution contained (mM) 135 CsF, 10 NaCl, 1 EGTA, 10 HEPES (pH 7.2 with CsOH) whereas the extracellular solution (mM) 145 NaCl, 4 KCl, 0.5 MgCl2, 1 CaCl2, […], 10 Glucose (pH 7.4 with NaOH).
For data collection, the Sophion software was used and the analysis was performed off-line using Excel and GraphPad Prism.
When possible, i.e. when the % of inhibition with the highest concentration tested was more than 50%, the dose-response curves data were fitted with the following equation:
[X is log of concentration; Y is normalized response (100% down to 0%, decreasing as X increases); Log IC50 same log units as X; HillSlope is unitless slope factor or hill slope]
On the technique in general: The patch-clamp technique gives a direct electrical read-out from membranes.

Structures are written as SMILES.

Turning to `Nc1ncnc2c1ncn2[C@@H]1O[C@H](COP(=O)(O)OP(=O)([O-])OP(=O)([O-])O)[C@@H](O)[C@H]1O.[Mg+2]` [Mg-ATP, reference compound], on rat P2X4, the “EC80 of the agonist, rat P2X4” value was 5 µM. The “EC80 of the agonist, human P2X4” value at human P2X4 [1] is 0.5 µM. On mouse P2X4, the “EC80 of the agonist, mouse P2X4” value stood at 0.5 µM.

Broadly, the IC50 is the concentration that inhibits the measured activity by half. As to `NS(=O)(=O)c1cc(NC(=O)Cc2ccccc2Cl)ccc1-c1cnn(C2CC2)c1` [Example 349, 2-(2-Chlorophenyl)-N-[4-(1-cyclopropyl-1H-pyrazol-4-yl)-3-sulfamoylphenyl]acetamide], the IC50 on human P2X4 [2] was found to be 0.037 µM; at hP2X4 it was 0.117 µM.

`NS(=O)(=O)c1cc(NC(=O)Cc2ccccc2Cl)ccc1-n1cc(Cl)cn1` [Example 25, 2-(2-Chlorophenyl)-N-[4-(4-chloro-1H-pyrazol-1-yl)-3-sulfamoylphenyl]acetamide]: the half-inhibitory concentration (IC50) was 0.026 µM at human P2X4 [2] and 0.222 µM on hP2X4.

In the case of `NS(=O)(=O)c1cc(NC(=O)Cc2ccccc2F)cnc1-n1cc(C(F)(F)F)cn1` [Example 381, 2-(2-Fluorophenyl)-N-{5-sulfamoyl-6-[4-(trifluoromethyl)-1H-pyrazol-1-yl]pyridin-3-yl}acetamide], the concentration for half-maximal inhibition (IC50) at human P2X4 [2] was 1.24 µM; at hP2X4, 2.58 µM.
